Laboratory results as given in patent publication US20100331363A1, “TREATMENT OF MITOCHONDRIAL DISORDERS USING A FARNESYL TRANSFERASE INHIBITOR” (Link Medicine Corporation, priority 2008, published 2010).
Entries after “also recorded” stand apart in the source; their conditions may differ.

How the values were obtained:
human α-synuclein = assay: Masliah D-line α-synuclein transgenic mouse, α-synuclein immunoreactivity and ELISA; format: in vivo
Method: Animals and treatments: Male and female human WT alpha-synuclein over-expressing transgenic mice^32 at 6 months of age were given vehicle (10% beta-cyclodextrin) or LNK-754-TS (0.09, 0.9 and 9 mg/kg) per oral gavage twice daily for 3 months or animals at 7 months of age were given vehicle (2.5% beta-cyclodextrin) or LNK-754-TS (2 mg/kg) once every three days for 3 months. Male and female TAU transgenic mice expressing TAU441 bearing the missense mutations V337M^50 and R406W under the control of the murine Thy-1 promoter with a CB6xC57BL/6 background were 5 months old at the time when the oral treatment for three months with LNK-754-TS (0.9 and 0.09 mg/kg) as well as vehicle (2.5% beta-cyclodextrin) was started. Female human APP/PS1 (APP (London V7171)/PS1(A246E)) over-expressing transgenic mice were treated with LNK-754-TS (0.9 mg/kg) or vehicle (2.5% beta-cyclodextrin) for 2 months or 12 days.
Immunohistochemistry and quantification of stained cells: For evaluation of α-synuclein immunoreactivity (IR), 5 sagittal cryo-cut sections (10 μm slice thickness) from five different layers were used for counting of IR cells in the cortex and hippocampus. Brain sections were stained with a monoclonal human α-synuclein specific antibody (Alexis®; Cat#804-258-L001; dilution 1:5), followed by a secondary Ab Cy 2-Goat Anti-Rat (Jackson ImmunoResearch®; dilution 1:200). IR positive cells were quantified using specialized image analysis software (Image Pro Plus, version 4.5.1.29). For Tau transgenic animals, 5 μm thick coronal paraffin sections were stained with the monoclonal mouse anti-human TAU-antibodies (AT180—1:100; HT7—1:500) and visualized using an anti-mouse Cy3 secondary antibody (1:500, Jackson Laboratories®). Images were evaluated with ImageProPlus (version 6.2) image analysis software. For APP/PS1 transgenic animals sagittal hemisections (40 μm) were collected and processed for Aβ immunohistochemistry using an 6E10 antibody, Thioflavin-S staining. Primary antibodies were detected by the ABC method.
ELISA quantification of α-Synuclein in the α-Synuclein transgenic animals: Brain homogenate was centrifuged and the supernatant saved as fraction F1. The pellet was washed then resuspended and saved as fraction F2. Plates (Nunc, 464718) were coated with SYN-1 (1:1000, BD Transduction Labs, 610787). Monomeric recombinant α-synuclein was included as an internal standard. Biotinylated antibody FL-140 (1:300, Santa Cruz Biotechnology, sc-10717-B) and ExtrAvidin-Alkaline phosphatase (3:5000, Sigma, E2636) was added followed by pNPP substrate solution (Sigma, N1891). Raw absorbance (405 nm) was then normalized to the total protein concentration of each sample. In the APP/PS1 transgenic animal, brains were homogenized and the supernatant, Faction 1, was separated from the pellet. The pellets were further processed with addition of NP40 and Triton X-100. The supernatant was separated from the pellet as the insoluble membrane, Fraction 2, and was dissolved in 8M Guanidine. To quantify the amount of human Aβ-40 and Aβ-42, ELISA kits were used (The Genetics Company, Zurich, Switzerland).
In FIG. 2 is shown efficacy data for LNK-754-TS in the Masliah D-line transgenic α-synuclein mouse (an accepted model of synucleinopathies). Two trials are shown, the first (FIG. 2A) at higher doses of LNK-754-TS: 45 mg/kg and 9 mg/kg. […] The second trial (FIG. 2B) explores the low dose range for efficacy in the α-synuclein models. Here, doses start as low as 0.9 mg/kg, and extend through 9 mg/kg, all below the efficacious dose range in the mouse oncology model.
After dosing with LNK-754-TS for three months (twice daily at 0.09 mg/kg or 0.9 mg/kg), α-synuclein accumulation in the brain was analyzed by immunohistochemical (human specific α-synuclein immunoreactivity) and biochemical (α-synuclein ELISA) means. […]

isolated islet cells = assay: Insulin secretion assay, isolated islet cells; format: cell-based; settings: for increase in insulin stimulation: 10 nM, high glucose conditions (15 mM)
Method: One example of such an assay is as follows: prior to glucose-induced insulin secretion, cells were cultured for two hours in RPMI containing 3 mM glucose without serum. Cells were then washed and preincubated for 30 min in modified Krebs-Ringer bicarbonate buffer (KRB) containing (in mM): 119 NaCl, 4.6 KCl, 5 NaHCO3, 2 CaCl2, 1 MgSO4, 0.15 Na2HPO4, 0.4 KH2PO4, 20 HEPES, 2 glucose, 0.05% BSA, pH 7.4. This was followed by 30 min incubation in media containing either 3 mM glucose (to simulate low glucose conditions) or 15 mM glucose (to simulate high glucose conditions). Media are treated with varying concentrations of compound (1 nM and 10 nM). Media was collected and stored at −20° C. for insulin measurement. Insulin was measured by ELISA.
In both graphs, insulin is measured in (pictogram/ml). […] The amount of insulin secretion stimulated is dependent on the concentration of compound, incubation time, and cell-type. […] This distinguishes the effect of LNK-754 from sulfonyl urea compounds, the current standard oral anti-diabetic drug which increases insulin secretion under all conditions (not desired).

Ras = assay: Soluble/cytoplasmic Ras level in frontal cortex of alpha-synuclein transgenic mice; format: in vivo, mouse; settings: 0.09 mg/kg or 9 mg/kg b.i.d. 3 months vs vehicle
Method: The level of inhibition of Ras in brain by LNK-754-TS, dosed at an efficacious dose for efficacy in animal models of proteinopathy-dependent neurodegeneration, was investigated. Alpha-synuclein transgenic mice were treated for 3 months b.i.d. with vehicle or LNK-754-TS at 0.09 mg/kg or 9 mg/kg. Cortical tissue was extracted and homogenized, followed by isolation of soluble/cytosolic proteins in detergent-free buffer (50 mM Tris-HCl pH 7.4, 140 mM NaCl, 2 mM EDTA, Protease inhibitor cocktail) by centrifugation. 15 micrograms of protein lysate was analyzed per lane of SDS-PAGE gel, and immunoblotted for Ras and actin (FIG. 6). Densitometry was used to quantify the Ras/actin ratio for each sample, and results were plotted (FIG. 7). […] This contrasts with what is observed in xenograft cancer models, where inhibition of Ras farnesylation by high dose FTIs is directly correlated with efficacy (FIG. 3 and Example 3).

[1] = 9 mg/kg PO BID 3 months, first trial (FIG. 2A)
[2] = 45 mg/kg PO BID 3 months (FIG. 2A)
[3] = α-synuclein transgenic mice vs vehicle
[4] = 0.09 or 0.9 mg/kg twice daily, three months

In the case of `C#Cc1cccc(-c2cc(=O)n(C)c3ccc([C@](O)(c4ccc(Cl)cc4)c4cncn4C)cc23)c1` [LNK-754, (R)-6-[(4-chlorophenyl)-hydroxyl-(1-methyl-1-H-imidazol-5-yl)-methyl]-4-(3-ethynylphenyl)-1-methyl-2-(1H)-quinonlinone], the “number of α-synuclein positive neurons” value (human α-synuclein; 0.9 mg/kg, second trial (FIG. 2B)) is reported as “significantly lowered”, the “number of α-synuclein positive neurons” value (human α-synuclein; [1]) is reported as “found to significantly lower” and the “number of α-synuclein positive neurons” value (human α-synuclein; [2]) is reported as “did not significantly lower; also recorded: not found to significantly lower”. For the same molecule, the “levels of α-synuclein in the hippocampus” value (human α-synuclein; [3]) was “decrease levels of α-synuclein”, the α-synuclein inclusions (human α-synuclein; [3]) was “fewer α-synuclein inclusions” and the “increase in insulin stimulation” value (isolated islet cells; 2.5 days of incubation) was about 75%. The “increase in insulin stimulation” value (isolated islet cells; 3 days of incubation) was about 55% and the “insulin secretion under basal glucose conditions” value (isolated islet cells; basal glucose (3 nM)) was “not under basal glucose conditions; also recorded: does not affect basal insulin secretion”.

`C#Cc1cccc(-c2cc(=O)n(C)c3ccc([C@](O)(c4ccc(Cl)cc4)c4cncn4C)cc23)c1` [LNK-754-TS, (R)-6-[(4-chlorophenyl)-hydroxyl-(1-methyl-1-H-imidazol-5-yl)-methyl]-4-(3-ethynylphenyl)-1-methyl-2-(1H)-quinonlinone (2S, 3S)-dihydroxybutanedioate] was tested, and the “α-synuclein accumulation in brain (immunoreactivity and ELISA)” value (human α-synuclein; 0.09 mg/kg or 0.9 mg/kg twice daily, three months, cortex and hippocampus) was “clearly reduced; also recorded: halts deposition”, the “cortical α-synuclein immunoreactivity” value (human α-synuclein; 2 mg/kg once every 72 hours, three months, vs baseline and vehicle) was “significantly lower than at the outset of treatment; also recorded: significantly reduces” and the “number of α-synuclein positive neurons” value (human α-synuclein; [1]) was “significant reduction”. For the same molecule, the “number of α-synuclein IR cells in hippocampus” value (human α-synuclein; 9 mg/kg PO BID 3 months, second lower dose trial (FIG. 2B)) was “significance level was not reached”, the “number of α-synuclein positive neurons” value (human α-synuclein; [2]) was “not significantly effective” and the “astrocytosis (GFAP staining)” value (human α-synuclein; [4]) was “GFAP staining was unchanged”. The drug-dependent toxicity (human α-synuclein; [4]) was “None of the treated animals showed any evidence”, the “neuronal loss (NeuN staining and brain volume)” value (human α-synuclein; [4]) was “no evidence of neuronal loss” and the “synaptic damage (synaptophysin staining)” value (human α-synuclein; [4]) was “synaptophysin staining was unchanged”. The “reduction of α-synuclein immunoreactivity, hippocampal slices” value (human α-synuclein; three-month dosing trial (FIG. 9c)) was “ca. 50%” and the “soluble Ras/actin level in cortex” value (Ras) was “No significant differences”.
